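Cultured in 96-well plates, cells were exposed to test compound for 48 hours across five concentrations. GI50 marks 50% less growth.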 The source made the active and inactive calls. No stated cut-off is given here; in the data, active = GI50 up to about 1.1 µM and inactive = higher.
How the values were obtained:
Test in all cases: growth of human tumour cells (NCI), 48 h
DLD-1 = tested on: DLD-1
DMS-273 = tested on: DMS-273
HOP-18 = tested on: HOP-18
KM-20L2 = tested on: KM-20L2
LXFL 529 = tested on: LXFL 529
M19-MEL = tested on: M19-MEL
RXF 631 = tested on: RXF 631
SNB-78 = tested on: SNB-78
XF498 = tested on: XF498

Measured: GI50

COc1ccc(C)cc1-c1cc(Sc2ccccc2)c(-c2cc(C)ccc2OC)o1
inactive: DLD-1 > 31.6 µM | DMS-273 > 31.6 µM | HOP-18 > 31.6 µM | KM-20L2 > 31.6 µM | LXFL 529 > 31.6 µM | M19-MEL > 31.6 µM | RXF 631 > 31.6 µM | SNB-78 > 31.6 µM | XF498 > 100 µM

CN(C)c1n/c(=N/c2cccc(Cl)c2)ss1
inactive: DLD-1 12.1 µM | DMS-273 13 µM | HOP-18 > 100 µM | KM-20L2 17.4 µM | LXFL 529 7.14 µM | M19-MEL 17.1 µM | RXF 631 13.5 µM | SNB-78 18.1 µM | XF498 16.7 µM
